Measured values as given in patent US20070134355A1, “Use of plant parts of prickly pear (opuntia) and/or extracts therefrom for the treatment of depressions” (priority 2003, published 2007).
“And” between values parts separate entries of the source, which are not always exact repeats. Identical values can stand only once.

Tested on: rats
Assay: forced swimming test in rats
Format: in vivo, rat
Settings: percentage of inhibition against the control group
Protocol: The antidepressive efficacy has been tested by means of the so-called “forced swimming test” in rats. In this test rats are brought into an impasse during a defined period of five minutes (glass cylinder filled with water). In this test the rats reacted with a rigour referred to as immobilization time, which is interpreted to correlate with a depression. If the rats are treated with an antidepressively effective medicament prior to the test, the immobilization time decreases. Since other psychopharamaca such as anxiolytics or neuroleptics are not efficacious in this test, this test system is well suitable to detect antidepressive effects (R. D. Porsolt et al., Eur. J. Pharmacol. 47, 379-391 (1978); R. D. Porsolt et al., Adv. Pharmacol. Sci., 137-159 (1991)). In order to be efficacious, each of the heretofore known antidepressive agents has to be administered over a period of several days in this test, like in the case of patients. The test animals were treated either with the test substance or with a solvent only for control purposes or with the tricyclic antidepressive agent Imipramine in order to compare the efficacy. Imipramine was selected as the standard comparative substance, because it is one of the strongest antidepressive agents both in psychiatric practice and in animal model.
Tables 1 to 3 exemplarily show the efficacy of three different Opuntia extracts compared to the tricyclic antidepressive agent Imipramine as determined after a treatment period of 9 days. […] In this case, the inhibition was determined already after a treatment period of 3 days. For comparison purposes, the inhibition of the immobility was represented as the percentage of inhibition against the control group in each of the tables.

Row | SMILES | Inhibition of immobility (dose 20 mg/kg, treatment period of 9 days) | Inhibition of immobility (dose 30 mg/kg, treatment period of 9 days, 30 mg/kg) | Inhibition of immobility (dose 100 mg/kg, treatment period of 3 days)
1 | CN(C)CCCN1c2ccccc2CCc2ccccc21 [Imipramine] | 44% | 64% and 68% | 
2 | COc1ccc(C(CN(C)C)C2(O)CCCCC2)cc1 (stereo not drawn) [Venlafaxine] |  |  | 25%
